US10316017B2, “COT modulators and methods of use thereof” (Gilead Sciences, Inc., priority 2015, dated 2019)
Where two headings read alike, the source gives them in different places.

What was measured:
[1] = target: T1, human Cot catalytic domain (30-397 amino acids) (Homo sapiens, UniProt P41279); assay: High Throughput Cot Biochemical Assay (KinEASE TR-FRET); conditions: read-out: IC50 HTRF
T1 construct: Purified recombinant human Cot catalytic domain (30-397 amino acids) was purchased from Cama Biosciences; purchased Cama Biosciences (so in the source)
Method in brief: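 Phosphorylation of 1 μM XL665-STK3 peptide by 5 nM Cot catalytic domain was measured by time-resolved FRET using a europium […] antibody. ATP was 400 μM; buffer was 10 mM MOPS pH 7.0 with Mg2+ and DTT.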

[2] = tested on: TNFα production in LPS-stimulated human monocytes; assay: Cot Monocyte TNFα Cell Based Assay; conditions: Homo sapiens, Monocyte, read-out: EC50 TNF
Method in brief: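 Percent-of-control values derive from TR-FRET ratios of TNFα in spun-down media, referenced to unstimulated and LPS-stimulated wells. Exposure: 1 h compound preincubation, then 50 pg/ml LPS for 4 h, both at 37 °C, with 0.5% final DMSO.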

[3] = Cot KinEASE TR-FRET, 400 μM ATP
[4] = LPS-stimulated human monocytes, TNFα TR-FRET
[5] = Cot KinEASE TR-FRET (HTRF) biochemical assay, 400 μM ATP
[6] = TNFα in LPS-stimulated human monocytes
[7] = Cot biochemical HTRF (KinEASE TR-FRET) assay

T1 sequence (P41279 30-397): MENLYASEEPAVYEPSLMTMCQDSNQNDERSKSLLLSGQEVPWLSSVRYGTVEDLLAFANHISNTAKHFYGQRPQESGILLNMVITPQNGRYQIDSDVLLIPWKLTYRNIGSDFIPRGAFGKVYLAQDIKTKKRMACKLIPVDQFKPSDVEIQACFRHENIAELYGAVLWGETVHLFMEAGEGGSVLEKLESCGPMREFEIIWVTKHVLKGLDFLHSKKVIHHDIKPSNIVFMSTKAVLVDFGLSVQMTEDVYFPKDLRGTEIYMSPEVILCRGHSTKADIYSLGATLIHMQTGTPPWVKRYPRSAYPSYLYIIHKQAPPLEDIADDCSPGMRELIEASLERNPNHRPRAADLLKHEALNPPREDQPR

Row | IC50 [1, 3] [nM] | EC50 [2, 4] [nM] | IC50 [1, 5] [nM] | EC50 [2, 6] [nM] | IC50 [1, 7] [nM] | SMILES
1 | 48 | 435 | – | – | – | CC(C)(C)CNc1c(C#N)cnc2c(Cl)cc(N[C@H](c3cn(C4(C(F)(F)F)CC4)nn3)c3cccc(C#N)c3Cl)cc12 [Example 1074, (S)-8-chloro-6-(((2-chloro-3-cyanophenyl)(1-(1-(trifluoromethyl)cyclopropyl)-1H-1,2,3-triazol-4-yl)methyl)amino)-4-(neopentylamino)quinoline-3-carbonitrile]
2 | – | – | 12 | > 1000 | – | CC[C@@H](Nc1c(C#N)cnc2c(Cl)cc(N[C@@H](c3cccc(-c4ccccc4)c3)c3cn(C4CC4)nn3)cc12)c1ccccc1 [Example 94, 6-(((S)-[1,1'-biphenyl]-3-yl(1-cyclopropyl-1H-1,2,3-triazol-4-yl)methyl)amino)-8-chloro-4-(((R)-1-phenylpropyl)amino) quinoline-3-carbonitrile]
3 | – | – | 807 | > 10000 | – | [2H]C(Nc1cc(Cl)c2ncc(C#N)c(N[C@@H]3CCCC[C@@H]3N)c2c1)(c1ccc(F)cc1)c1cn(C2CC2)nn1 (stereo in doubt) [Example 228, 4-(((1R,2S)-2-aminocyclohexyl)amino)-8-chloro-6-(((S)-(1-cyclopropyl-1H-1,2,3-triazol-4-yl)(4-fluorophenyl)methyl-d)amino)quinoline-3-carbonitrile]
4 | – | – | – | > 10000 | 1740 | Cn1ccc(CNc2c(C#N)cnc3c(Cl)cc(N[C@@H](c4ccccc4)c4cn(C5CCN(C(C)(C)C)CC5)nn4)cc23)n1 [Example 476, (S)-6-(((1-(1-(tert-butyl)piperidin-4-yl)-1H-1,2,3-triazol-4-yl)(phenyl)methyl)amino)-8-chloro-4-(((1-methyl-1H-pyrazol-3-yl)methyl)amino)quinoline-3-carbonitrile]
5 | – | – | – | 209 | 7 | CN(C)CCn1cc([C@@H](Nc2cc(Cl)c3ncc(C#N)c(Nc4ccc(F)c(Cl)c4)c3c2)c2ccccc2)nn1 [Example 793, (S)-8-chloro-4-((3-chloro-4-fluorophenyl)amino)-6-(((1-(2-(dimethylamino)ethyl)-1H-1,2,3-triazol-4-yl)(phenyl)methyl)amino) quinoline-3-carbonitrile]
6 | – | – | 874 | > 10000 | – | CC(C)n1cc([C@@H](Nc2cc(Cl)c3ncc(C#N)c(N[C@H](c4ccccc4)C(F)(F)F)c3c2)c2ccc(F)cc2)nn1 [Example 363, 8-chloro-6-(((S)-(4-fluorophenyl)(1-isopropyl-1H-1,2,3-triazol-4-yl)methyl)amino)-4-(((R)-2,2,2-trifluoro-1-phenylethyl)amino)quinoline-3-carbonitrile]
7 | 14 | 282 | – | – | – | [2H][C@](Nc1cc(Cl)c2ncc(C#N)c(Nc3cccc(Cl)c3)c2c1)(c1ccc(F)cc1)c1cn(C2CC2)nn1 [Example 947, (S)-8-chloro-4-((3-chlorophenyl)amino)-6-(((1-cyclopropyl-1H-1,2,3-triazol-4-yl)(4-fluorophenyl)methyl-d)amino)quinoline-3-carbonitrile]
8 | – | – | 131 | 687 | – | CC(F)(F)CNc1c(C#N)cnc2c(Cl)cc(N[C@@H](c3ccc(F)cc3)c3cn(C4CC4)nn3)cc12 [Example 349, (S)-8-chloro-6-(((1-cyclopropyl-1H-1,2,3-triazol-4-yl)(4-fluorophenyl)methyl)amino)-4-((2,2-difluoropropyl)amino)quinoline-3-carbonitrile]
9 | – | – | – | 315 | 14 | N#Cc1cnc2c(Cl)cc(N[C@@H](c3ccccc3)c3cn(CCCN4CCCC4)nn3)cc2c1Nc1ccc(F)c(C#N)c1F [Example 469, (S)-8-chloro-4-((3-cyano-2,4-difluorophenyl)amino)-6-((phenyl(1-(3-(pyrrolidin-1-yl)propyl)-1H-1,2,3-triazol-4-yl)methyl)amino)quinoline-3-carbonitrile]
10 | 76 | ≥ 1000 | – | – | – | CC(C)(C)CNc1c(C#N)cnc2c(Cl)cc(N[C@H](c3cn(C4(C(F)(F)F)CC4)nn3)c3cccc(C(=O)O)c3F)cc12 [Example 1112, (S)-3-(((8-chloro-3-cyano-4-(neopentylamino)quinolin-6-yl)amino)(1-(1-(trifluoromethyl)cyclopropyl)-1H-1,2,3-triazol-4-yl)methyl)-2-fluorobenzoic acid]
11 | – | – | 6 | 206 | – | [2H][C@](Nc1cc(C#N)c2ncc(C#N)c(Nc3cnc(F)c(F)c3)c2c1)(c1ccc(F)cc1)c1cn(C2CC2)nn1 [Example 351, (S)-6-(((1-cyclopropyl-1H-1,2,3-triazol-4-yl)(4-fluorophenyl)methyl-d)amino)-4-((5,6-difluoropyridin-3-yl)amino)quinoline-3,8-dicarbonitrile]
12 | – | – | 61 | 979 | – | [2H][C@](Nc1cc(Cl)c2ncc(C#N)c(N[C@H](CCN3CCCCC3)c3ccccc3)c2c1)(c1ccc(F)cc1)c1cn(C2CC2)nn1 [Example 166, 8-chloro-6-(((1-cyclopropyl-1H-1,2,3-triazol-4-yl)(4-fluorophenyl)methyl-d)amino)-4-(((R)-1-phenyl-3-(piperidin-1-yl)propyl)amino)quinoline-3-carbonitrile]
13 | – | – | – | 274 | 7 | N#Cc1cnc2c(Cl)cc(N[C@@H](c3ccccc3)c3cn(CCO)nn3)cc2c1Nc1ccc(F)c(Cl)c1 [Example 738, (S)-8-chloro-4-((3-chloro-4-fluorophenyl)amino)-6-(((1-(2-hydroxyethyl)-1H-1,2,3-triazol-4-yl)(phenyl)methyl)amino)quinoline-3-carbonitrile]
14 | – | – | – | 8150 | 379 | CC(C)(C)N1CCC(n2cc([C@@H](Nc3cc(Cl)c4ncc(C#N)c(Nc5cc(Cl)c(Cl)cc5F)c4c3)c3ccc(Cl)cc3)nn2)CC1 [Example 664, (S)-6-(((1-(1-(tert-butyl)piperidin-4-yl)-1H-1,2,3-triazol-4-yl)(4-chlorophenyl)methyl)amino)-8-chloro-4-((4,5-dichloro-2-fluorophenyl)amino)quinoline-3-carbonitrile]
15 | – | – | – | 2390 | 143 | CC(C)(C)N1CCC(n2cc([C@@H](Nc3cc(Cl)c4ncc(C#N)c(NC56CCC7CC(CC(C7)C5)C6)c4c3)c3ccccc3)nn2)CC1 [Example 636, 6-(((S)-(1-(1-(tert-butyl)piperidin-4-yl)-1H-1,2,3-triazol-4-yl)(phenyl)methyl)amino)-8-chloro-4-(((1R,3r,6S,8S)-tricyclo[4.3.1.13,8]undecan-3-yl)amino)quinoline-3-carbonitrile]
16 | – | – | – | 1340 | 22 | N#Cc1cnc2c(Cl)cc(N[C@@H](c3ccc(F)cc3)c3c[nH]nn3)cc2c1Nc1cnc(F)c(F)c1 [Example 513, (S)-8-chloro-4-((5,6-difluoropyridin-3-yl)amino)-6-(((4-fluorophenyl)(1H-1,2,3-triazol-4-yl)methyl)amino) quinoline-3-carbonitrile]
17 | – | – | – | > 10000 | 787 | C[C@@H](Nc1c(C#N)cnc2c(Cl)cc(N[C@@H](c3ccccc3)c3cn(C4CCN(C(C)(C)C)CC4)nn3)cc12)C1CCOCC1 [Example 524, 6-(((S)-(1-(1-(tert-butyl)piperidin-4-yl)-1H-1,2,3-triazol-4-yl)(phenyl)methyl)amino)-8-chloro-4-(((R)-1-(tetrahydro-2H-pyran-4-yl)ethyl)amino) quinoline-3-carbonitrile]
18 | – | – | 53 | 2260 | – | [2H][C@](Nc1cc(Cl)c2ncc(C#N)c(Nc3cnc(F)c(F)c3)c2c1)(c1ccc(F)cc1)c1cn(C2CS(=O)(=O)C2)nn1 [Example 359, (S)-8-chloro-4-((5,6-difluoropyridin-3-yl)amino)-6-(((1-(1,1-dioxidothietan-3-yl)-1H-1,2,3-triazol-4-yl)(4-fluorophenyl)methyl-d)amino)quinoline-3-carbonitrile]
19 | 14 | 286 | – | – | – | [2H][C@](Nc1cc(Cl)c2ncc(C#N)c(NCC(C)(C)C)c2c1)(c1cn(C2(CO)COC2)nn1)c1ccccc1Cl [Example 965, 8-chloro-6-(((2-chlorophenyl) (1-(3-(hydroxymethyl)oxetan-3-yl)-1H-1,2,3-triazol-4-yl)methyl-d)amino)-4-(neopentylamino) quinoline-3-carbonitrile]
20 | – | – | – | 1990 | 249 | N#Cc1cnc2c(Cl)cc(NC(c3ccc(F)cc3)c3csnn3)cc2c1Nc1ccc(F)c(Cl)c1 (centres unmarked) [Example 784, 8-chloro-4-((3-chloro-4-fluorophenyl)amino)-6-(((4-fluorophenyl)(1,2,3-thiadiazol-4-yl)methyl)amino)quinoline-3-carbonitrile]
21 | – | – | 3 | 93 | – | [2H][C@](Nc1cc(F)c2ncc(C#N)c(N[C@H](CC)c3ccccc3)c2c1)(c1cccc(C#N)c1)c1cn(C2CC2)nn1 [Example 257, 6-(((S)-(3-cyanophenyl)(1-cyclopropyl-1H-1,2,3-triazol-4-yl)methyl-d)amino)-8-fluoro-4-(((R)-1-phenylpropyl)amino)quinoline-3-carbonitrile]
22 | – | – | – | 112 | 2 | COC1CN(C(=O)c2cccc([C@H](Nc3cc(Cl)c4ncc(C#N)c(Nc5ccc(F)c(Cl)c5)c4c3)c3cn(C4CCN(C(C)(C)C)CC4)nn3)c2)C1 [Example 621, (S)-6-(((1-(1-(tert-butyl)piperidin-4-yl)-1H-1,2,3-triazol-4-yl)(3-(3-methoxyazetidine-1-carbonyl)phenyl)methyl)amino)-8-chloro-4-((3-chloro-4-fluorophenyl)amino)quinoline-3-carbonitrile]
